Among the data in PubChem BioAssay AID1745844 (Carcinogenic Potency Database (CPDB), 2022) are carcinogen call and TD50 values, retold here.

The TD50 is the dose at which the toxic effect under study appears in half of the subjects.

The test system of the data set is rodent lifetime carcinogenesis bioassay, tumor incidence TD50. Nature of the data set: chronic cancer bioassays in animals – CPDB, compiled studies (AID 1745844).

Active and inactive are the calls of the source. No rule for the calls is given here.

For the molecule `C1N2CN3CN1CN(C2)C3`, the carcinogen call (mouse, strain C3Hf/Dp, females, in drinking water, site: any site (literature study), lesion: several types, types named in the paper, dosed 60 weeks, study length 105 weeks) was “negative (inactive)”; the carcinogen call (mouse, strain C3Hf/Dp, females, in drinking water, site: liver, lesion: hepatoma, dosed 60 weeks, study length 105 weeks) is “negative (inactive)”; the carcinogen call (mouse, strain C3Hf/Dp, females, in drinking water, site: lung, lesion: adenoma, dosed 60 weeks, study length 105 weeks) is “negative (inactive)”; the carcinogen call (mouse, strain C3Hf/Dp, males, in drinking water, site: any site (literature study), lesion: several types, types named in the paper, dosed 60 weeks, study length 105 weeks) is “negative (inactive)”; the carcinogen call (mouse, strain C3Hf/Dp, males, in drinking water, site: liver, lesion: hepatoma, dosed 60 weeks, study length 105 weeks) is “negative (inactive)”; the carcinogen call (mouse, strain CTM, females, in drinking water, site: liver, lesion: angioma, dosed 50 weeks, study length 100 weeks) is “negative (inactive)”. For the same molecule, the carcinogen call is “negative (inactive)” (mouse, strain CTM, females, in drinking water, site: lung, lesion: adenoma, dosed 50 weeks, study length 100 weeks); “negative (inactive)” (mouse, strain CTM, males, in drinking water, site: any site (literature study), lesion: several types, types named in the paper, dosed 50 weeks, study length 100 weeks); “negative (inactive)” (mouse, strain CTM, males, in drinking water, site: liver, lesion: angioma, dosed 50 weeks, study length 100 weeks); “negative (inactive)” (mouse, strain CTM, males, in drinking water, site: lung, lesion: adenoma, dosed 50 weeks, study length 100 weeks); “negative (inactive)” (mouse, strain SWR, females, in drinking water, site: any site (literature study), lesion: several types, types named in the paper, dosed 60 weeks, study length 103 weeks); “negative (inactive)” (mouse, strain SWR, females, in drinking water, site: liver, lesion: one or several types, types not named, dosed 60 weeks, study length 103 weeks). Further, the carcinogen call was “negative (inactive)” (mouse, strain SWR, females, in drinking water, site: lung, lesion: adenoma, dosed 60 weeks, study length 103 weeks); “negative (inactive)” (mouse, strain SWR, males, in drinking water, site: any site (literature study), lesion: several types, types named in the paper, dosed 60 weeks, study length 103 weeks); “negative (inactive)” (mouse, strain SWR, males, in drinking water, site: liver, lesion: angioma, dosed 60 weeks, study length 103 weeks); “negative (inactive)” (mouse, strain SWR, males, in drinking water, site: lung, lesion: adenoma, dosed 60 weeks, study length 103 weeks); “negative (inactive)” (rat, strain Wistar, females, in drinking water, site: any site (literature study), lesion: several types, types named in the paper, dosed 104 weeks, study length 146 weeks); “negative (inactive)” (rat, strain Wistar, females, in drinking water, site: liver, lesion: one or several types, types not named, dosed 104 weeks, study length 146 weeks). In addition, the carcinogen call was “negative (inactive)” (rat, strain Wistar, males, in drinking water, site: any site (literature study), lesion: several types, types named in the paper, dosed 104 weeks, study length 146 weeks) and “negative (inactive)” (rat, strain Wistar, males, in drinking water, site: liver, lesion: liver-cell carcinoma, dosed 104 weeks, study length 146 weeks). In addition, the TD50 was 51900 mg/kg/day (inactive) (mouse, strain C3Hf/Dp, females, in drinking water, site: liver, lesion: angioma, dosed 60 weeks, study length 105 weeks); 32300 mg/kg/day (inactive) (mouse, strain C3Hf/Dp, males, in drinking water, site: liver, lesion: angioma, dosed 60 weeks, study length 105 weeks); 293000 mg/kg/day (inactive) (mouse, strain C3Hf/Dp, males, in drinking water, site: lung, lesion: adenoma, dosed 60 weeks, study length 105 weeks); 26300 mg/kg/day (inactive) (mouse, strain CTM, females, in drinking water, site: Harderian gland, lesion: one or several types, types not named, dosed 50 weeks, study length 100 weeks); 11600 mg/kg/day (inactive) (mouse, strain CTM, females, in drinking water, site: any site (literature study), lesion: several types, types named in the paper, dosed 50 weeks, study length 100 weeks); 20900 mg/kg/day (inactive) (mouse, strain CTM, females, in drinking water, site: several sites, sites named in the paper, lesion: one or several types, types not named, dosed 50 weeks, study length 100 weeks).
As to `CC(C)n1c(/C=C/[C@H](O)C[C@H](O)CC(=O)O)c(-c2ccc(F)cc2)c2ccccc21`, the TD50 by setting is: (rat, strain Charles River CD (Sprague-Dawley), females, by gavage, site: liver, lesion: hepatocellular adenoma, dosed 104 weeks, study length 104 weeks) 2780 mg/kg/day; (rat, strain Charles River CD (Sprague-Dawley), females, by gavage, site: liver, lesion: hepatocellular carcinoma, dosed 104 weeks, study length 104 weeks) 916 mg/kg/day; (rat, strain Charles River CD (Sprague-Dawley), females, by gavage, site: stomach, lesion: papilloma, dosed 104 weeks, study length 104 weeks) 916 mg/kg/day; (rat, strain Charles River CD (Sprague-Dawley), males, by gavage, site: stomach, lesion: papilloma, dosed 104 weeks, study length 104 weeks) 610 mg/kg/day; (rat, strain Charles River CD (Sprague-Dawley), males, by gavage, site: stomach, lesion: squamous-cell carcinoma, dosed 104 weeks, study length 104 weeks) 919 mg/kg/day; (rat, strain Charles River CD (Sprague-Dawley), males, by gavage, site: thyroid gland, lesion: follicular adenocarcinoma, dosed 104 weeks, study length 104 weeks) 258 mg/kg/day. In addition, for the setting “rat, strain Charles River CD (Sprague-Dawley), males, by gavage, site: thyroid gland, lesion: follicular-cell adenoma, dosed 104 weeks, study length 104 weeks”, the TD50 was 125 mg/kg/day.
Consider `COc1cc(-c2ccc(N=C=O)c(OC)c2)ccc1N=C=O`, for which the TD50 runs as follows: (mouse, strain B6C3F1, females, in feed, site: any site (literature study), lesion: several types, types named in the paper, dosed 78 weeks, study length 103 weeks) 32800 mg/kg/day (inactive); (mouse, strain B6C3F1, males, in feed, site: any site (literature study), lesion: several types, types named in the paper, dosed 78 weeks, study length 103 weeks) 24000 mg/kg/day (inactive); (mouse, strain B6C3F1, males, in feed, site: liver, lesion: hepatocellular adenoma + hepatocellular carcinoma + neoplastic nodule, dosed 78 weeks, study length 103 weeks) 12100 mg/kg/day; (mouse, strain B6C3F1, males, in feed, site: lung, lesion: alveolar/bronchiolar adenoma + alveolar/bronchiolar carcinoma, dosed 78 weeks, study length 103 weeks) 87900 mg/kg/day; (rat, strain Fischer 344, females, oral dosing, site: all sites + uterus, lesion: leukemia + lymphoma + endometrial stromal polyp, dosed 78 weeks, study length 104 weeks) 1450 mg/kg/day; (rat, strain Fischer 344, females, oral dosing, site: all sites, lesion: leukemia + lymphoma, dosed 78 weeks, study length 104 weeks) 2280 mg/kg/day. Moreover, the TD50 is 773 mg/kg/day (rat, strain Fischer 344, females, oral dosing, site: any site (literature study), lesion: several types, types named in the paper, dosed 78 weeks, study length 104 weeks); 2590 mg/kg/day (rat, strain Fischer 344, females, oral dosing, site: ear + Zymbal's gland, lesion: sebaceous adenocarcinoma + squamous-cell carcinoma + trichoepithelioma, dosed 78 weeks, study length 104 weeks); 17100 mg/kg/day (rat, strain Fischer 344, females, oral dosing, site: liver, lesion: hepatocellular adenoma + hepatocellular carcinoma + neoplastic nodule, dosed 78 weeks, study length 104 weeks); 2740 mg/kg/day (rat, strain Fischer 344, females, oral dosing, site: uterus, lesion: endometrial stromal polyp, dosed 78 weeks, study length 104 weeks); 742 mg/kg/day (rat, strain Fischer 344, males, oral dosing, site: all sites + skin of foot and toe + skin of back + skin of flank + skin, lesion: leukemia + lymphoma + keratoacanthoma + basal-cell tumor + papilloma, NOS + sebaceous adenoma + sebaceous adenoma and adenocarcinoma, dosed 78 weeks, study length 104 weeks); 1270 mg/kg/day (rat, strain Fischer 344, males, oral dosing, site: all sites, lesion: leukemia + lymphoma, dosed 78 weeks, study length 104 weeks). Moreover, the TD50 runs as follows: (rat, strain Fischer 344, males, oral dosing, site: any site (literature study), lesion: several types, types named in the paper, dosed 78 weeks, study length 104 weeks) 809 mg/kg/day; (rat, strain Fischer 344, males, oral dosing, site: ear + Zymbal's gland, lesion: squamous-cell carcinoma, dosed 78 weeks, study length 104 weeks) 7010 mg/kg/day; (rat, strain Fischer 344, males, oral dosing, site: liver, lesion: hepatocellular adenoma + hepatocellular carcinoma + neoplastic nodule, dosed 78 weeks, study length 104 weeks) 6600 mg/kg/day; (rat, strain Fischer 344, males, oral dosing, site: skin of foot and toe + skin of back + skin of flank + skin, lesion: keratoacanthoma + basal-cell tumor + papilloma, NOS + sebaceous adenoma + trichoepithelioma, dosed 78 weeks, study length 104 weeks) 1770 mg/kg/day; (rat, strain Fischer 344, males, oral dosing, site: skin of foot and toe + skin of back + skin of flank + skin, lesion: keratoacanthoma + basal-cell tumor + papilloma, NOS + sebaceous adenoma and adenocarcinoma + squamous-cell carcinoma + trichoepith, dosed 78 weeks, study length 104 weeks) 1330 mg/kg/day.
In the case of `COc1cc(/C=C/C(=O)OCCc2ccccc2)ccc1O`, the carcinogen call (rat, strain Fischer 344, males, in feed, site: colon, lesion: one or several types, types not named, dosed 55 weeks, study length 55 weeks) was “negative (inactive)”.
On to `CC(C)(C)NC[C@H](O)COc1cccc2c1CCCC2=O`, for which the TD50 is, setting by setting: (mouse, strain CF-1, females, in feed, site: liver, lesion: hepatoma, dosed 78 weeks, study length 78 weeks) 5010 mg/kg/day; (mouse, strain CF-1, females, in feed, site: lung, lesion: alveogenic adenocarcinoma, dosed 78 weeks, study length 78 weeks) 2500 mg/kg/day; (mouse, strain CF-1, females, in feed, site: uterus, lesion: leiomyoma, dosed 78 weeks, study length 78 weeks) 1220 mg/kg/day; (rat, strain Wistar albino, females, in feed, site: liver, lesion: hepatoma, benign, dosed 104 weeks, study length 104 weeks) 2360 mg/kg/day; (rat, strain Wistar albino, females, in feed, site: mammary gland, lesion: fibroadenoma, dosed 104 weeks, study length 104 weeks) 71 mg/kg/day; (rat, strain Wistar albino, males, in feed, site: liver, lesion: hepatoma, benign, dosed 104 weeks, study length 104 weeks) 982 mg/kg/day. Further, under “rat, strain Wistar albino, males, in feed, site: pituitary gland, lesion: adenoma, dosed 104 weeks, study length 104 weeks”, the TD50 stood at 71.9 mg/kg/day.
Regarding `O=[N+]([O-])c1ccc2ncccc2c1`, the carcinogen call (rat, strain Fischer 344, females, in feed, site: liver, lesion: hyperplastic nodule, dosed 104 weeks, study length 104 weeks) is “negative (inactive)”. For the same molecule, the TD50 (rat, strain Fischer 344, males, in feed, site: liver, lesion: hyperplastic nodule, dosed 104 weeks, study length 104 weeks) is 267 mg/kg/day (inactive).
